Assay [1] has as its system HCT116p53+/+ cell. As to the kind of experiment: MTT cell proliferation at single concentration. The assay is classed as cell-based, human. The protocol: Cell proliferation was assessed by a MTT assay. Cancer cells were seeded in 96-well microtitre plates and, after overnight attachment, treated with GSTO1 inhibitors. After 72 h, MTT solution (3 mg ml^−1; 20 μl) was added to each well and cells were incubated for 3 h at 37 °C. After incubation, media from each well was removed and the dark blue formazan crystals formed by live cells were dissolved in DMSO (150 μl per well). The absorbance intensity was measured at 570 nm on a microplate reader (Molecular Devices, Sunnyvale, CA, USA). Cell viability after 24 h treatment was assessed using ApoTox-Glo triplex assay (Promega) according to the manufacturer's protocol. At least three independent dose–response experiments with each concentration tested in triplicate were performed for each cell line.

Assay [2] addresses T1, GSTO1 (Homo sapiens, UniProt P78417).
T1 sequence (P78417 1-241): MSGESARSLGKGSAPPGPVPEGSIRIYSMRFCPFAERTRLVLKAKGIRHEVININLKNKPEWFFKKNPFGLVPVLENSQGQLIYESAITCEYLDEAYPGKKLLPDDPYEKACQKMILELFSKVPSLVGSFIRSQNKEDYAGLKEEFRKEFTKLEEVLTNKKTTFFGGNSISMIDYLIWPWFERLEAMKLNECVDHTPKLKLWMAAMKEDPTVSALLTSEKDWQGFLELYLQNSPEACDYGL
As to the kind of experiment: GSTO1 substrate assay (reduction of 4-NPG). The note with it: for IC50: read-out: GSTO substrate assay IC50, cluster screening tables.
Protocol: For activity screening, we adapted a GSTO1 substrate assay that relies on the quantification of the reduction of S-(4-nitrophenacyl)glutathione (4-NPG), a GSTO1-specific substrate[17], using recombinant human GSTO1 in a high-throughput screening format.
Enzyme activity was measured by monitoring the reduction of 4-NPG to 4-nitroacetophenone by GSTO1.

The target in assay [3] is T1, GSTO1. The assay can be described thus: In-gel fluorescence competitive CMFDA binding assay, recombinant GSTO1. The conditions noted are these: inhibition of CMFDA binding.
Description: (§1) Primary screening of GSTO inhibitors was based on competitive inhibition of CMFDA binding to endogenous GSTO. Briefly, HCT116^p53+/+ cells (4 × 10^4 per well) were coated in a 12-well plate. […] Cells were then washed with PBS and lysed using Cell Lytic M buffer (Sigma). […] Gels were immediately scanned on a Typhoon variable mode imager (Amersham Bioscience). Quantification of fluorescent band intensity was done using Image Quant 5.2 software.
For assay [4], the target named is T2, endogenous GSTO1 (Homo sapiens, UniProt P78417).
T2 sequence (P78417 1-241): T1 sequence (P78417 1-241)
As to the kind of experiment: In-gel fluorescence competitive CMFDA binding assay, endogenous GSTO1 in HCT116. The note with it: 10 µM; inhibition of CMFDA binding, HCT116.
Description: as §1

Structures are written as SMILES. Several values for one entry are separate records, joined by “and”; a condition that tells them apart may be missing. Equal entries are not always repeated.

The source of these data is publication PMC5059489, “Mechanistic evaluation and transcriptional signature of a glutathione S-transferase omega 1 inhibitor” (Nature Communications, 2016).

Regarding `O=C(CCl)NCCC12CC3CC(CC(C3)C1)C2` [C3-34], the “% Inhibition of HCT116p53+/+ cell proliferation at 10 µM” value in assay [1] is on record as -2.4%. For the same molecule, the “GSTO substrate assay % Inhibition at 10 µM” value in assay [2] is reported as 78.6%. Besides, the “GSTO binding assay (% Inhibition at 10 µM) Recombinant” value in assay [3] was 50.9%. Besides, in assay [4], the “GSTO binding assay (% Inhibition at 10 µM) Endogenous” value was 41.7%.
On to `O=C(CCl)NCCCSc1ccccc1` [C3-14], for which the “% Inhibition of HCT116p53+/+ cell proliferation at 10 µM” value in assay [1] turned out to be 28.5%. In assay [2], the “GSTO substrate assay % Inhibition at 10 µM” value is listed as 78.4%. In addition, the “GSTO binding assay (% Inhibition at 10 µM) Recombinant” value in assay [3] was 38.8%. Besides, in assay [4], the “GSTO binding assay (% Inhibition at 10 µM) Endogenous” value was found to be 56.4%.
Regarding `CCN1CCC(NC(=O)CCl)CC1` [C2-1], the “% Inhibition of HCT116p53+/+ cell proliferation at 10 µM” value in assay [1] was 65.6% and 62.7%. In addition, the “GSTO substrate assay % Inhibition at 10 µM” value in assay [2] is recorded as 54.8%. Besides, the “GSTO binding assay (% Inhibition at 10 µM) Recombinant” value in assay [3] is listed as -0.8%. Further, the “GSTO binding assay (% Inhibition at 10 µM) Endogenous” value in assay [4] is 45.0%.
For `O=C(CCl)N1CCN(c2ccc(O)cc2)CC1` [C5-4], the “% Inhibition of HCT116p53+/+ cell proliferation at 10 µM” value in assay [1] is 81.9% and 84.4%. Besides, the “GSTO substrate assay % Inhibition at 10 µM” value in assay [2] came to 41.0%. For the same molecule, the “GSTO binding assay (% Inhibition at 10 µM) Recombinant” value in assay [3] is reported as 13.5%. Further, in assay [4], the “GSTO binding assay (% Inhibition at 10 µM) Endogenous” value is 33.4%.
With `C=CCSc1ccccc1NC(=O)CCl` [C1-5], the “% Inhibition of HCT116p53+/+ cell proliferation at 10 µM” value in assay [1] is -3.8% and -2.6%. Moreover, in assay [2], the “GSTO substrate assay % Inhibition at 10 µM” value worked out at 96.3%. Moreover, the “GSTO binding assay (% Inhibition at 10 µM) Recombinant” value in assay [3] is listed as 52.9%. For the same molecule, in assay [4], the “GSTO binding assay (% Inhibition at 10 µM) Endogenous” value amounted to 22.9%.
On to `CCCCN(C(=O)CCl)c1c(N)n(CC(C)C)c(=O)[nH]c1=O` [C4-19], for which the “% Inhibition of HCT116p53+/+ cell proliferation at 10 µM” value in assay [1] was 67.3%. In addition, the “GSTO substrate assay % Inhibition at 10 µM” value in assay [2] worked out at 11.8%. For the same molecule, the “GSTO binding assay (% Inhibition at 10 µM) Recombinant” value in assay [3] came to 2.1%. Also, the “GSTO binding assay (% Inhibition at 10 µM) Endogenous” value in assay [4] is recorded as -20.7%.
The corresponding values for `CC(NC(=O)CCl)c1ccc2c(c1)OCO2` (stereo not shown) [C3-7] are 73.6%, 12.5%, 12.3% and 12.6%.
Take `CCN1CCN(c2ccc(NC(=O)CCl)cc2)CC1` [C1-20]: in assay [1], the “% Inhibition of HCT116p53+/+ cell proliferation at 10 µM” value was 43.7% and 39%. The “GSTO substrate assay % Inhibition at 10 µM” value in assay [2] was 66.9%. Besides, the “GSTO binding assay (% Inhibition at 10 µM) Recombinant” value in assay [3] is given as -8.5%. For the same molecule, the “GSTO binding assay (% Inhibition at 10 µM) Endogenous” value in assay [4] is -15.1%.
In the case of `O=C(CCl)N(NC(=O)P(=O)(N1CCOCC1)N1CCOCC1)c1ccc(Br)cc1` [C4-20], in assay [1], the “% Inhibition of HCT116p53+/+ cell proliferation at 10 µM” value is 10.4% and 6.3%. Besides, the “GSTO substrate assay % Inhibition at 10 µM” value in assay [2] is on record as -7.3%. Also, the “GSTO binding assay (% Inhibition at 10 µM) Recombinant” value in assay [3] came to 9.3%. The “GSTO binding assay (% Inhibition at 10 µM) Endogenous” value in assay [4] is 27.6%.
Take `O=C(CCl)NC1CCN(Cc2ccccc2)CC1` [C2-2]: the “% Inhibition of HCT116p53+/+ cell proliferation at 10 µM” value in assay [1] is recorded as 1.1%. Moreover, the “GSTO substrate assay % Inhibition at 10 µM” value in assay [2] came to 90.5%. Moreover, the “GSTO binding assay (% Inhibition at 10 µM) Recombinant” value in assay [3] is reported as 6.5%. In assay [4], the “GSTO binding assay (% Inhibition at 10 µM) Endogenous” value was found to be 66.7%.
With `CC(C)C(C#N)N1CCN(C(=O)CCl)CC1` (stereo not shown) [C5-2], in assay [1], the “% Inhibition of HCT116p53+/+ cell proliferation at 10 µM” value is 40.2% and 61.1%. Further, in assay [2], the “GSTO substrate assay % Inhibition at 10 µM” value was determined as 58.2% and the IC50 – broadly, the midpoint of a concentration-inhibition curve – was 559 nM. The “GSTO binding assay (% Inhibition at 10 µM) Recombinant” value in assay [3] came to 52.5%. The “GSTO binding assay (% Inhibition at 10 µM) Endogenous” value in assay [4] came to 66.2%.
Consider `Cc1c(NC(=O)c2c(NC(=O)CCl)sc3c2CCCC3)c(=O)n(-c2ccccc2)n1C` [C2-19], for which the “% Inhibition of HCT116p53+/+ cell proliferation at 10 µM” value in assay [1] is 52.7% and 40.5%. Also, in assay [2], the “GSTO substrate assay % Inhibition at 10 µM” value was 1.2%. Besides, the “GSTO binding assay (% Inhibition at 10 µM) Recombinant” value in assay [3] is 51.8%. Moreover, the “GSTO binding assay (% Inhibition at 10 µM) Endogenous” value in assay [4] came to 58.6%.
As to `O=C(CCl)Nc1ccc(Oc2ccc(Br)cc2)cc1` [C1-7], the “% Inhibition of HCT116p53+/+ cell proliferation at 10 µM” value in assay [1] is reported as 29.6%. Moreover, in assay [2], the “GSTO substrate assay % Inhibition at 10 µM” value stood at 77.7% and the IC50 was found to be 162 nM. Also, the “GSTO binding assay (% Inhibition at 10 µM) Recombinant” value in assay [3] worked out at 75.6%. Also, the “GSTO binding assay (% Inhibition at 10 µM) Endogenous” value in assay [4] stood at 56.6%.
As for `O=C(CCl)NNC(=O)c1ccc(Br)cc1` [C3-21], in assay [1], the “% Inhibition of HCT116p53+/+ cell proliferation at 10 µM” value is on record as 9.9%. For the same molecule, in assay [2], the “GSTO substrate assay % Inhibition at 10 µM” value is reported as 81.3%. For the same molecule, in assay [3], the “GSTO binding assay (% Inhibition at 10 µM) Recombinant” value was found to be 58.4%. For the same molecule, in assay [4], the “GSTO binding assay (% Inhibition at 10 µM) Endogenous” value worked out at 27.6%.
